# Laboratory results from PubChem BioAssay AID328 (DTP/NCI, 2004).
# “And” between values parts separate entries of the source, which are not always exact repeats. Equal values may be shown once. Inconclusive results and toxic doses are left out.
# System: BDF1 mice, P388 leukemia ip, median survival T/C
# Assay: NCI In Vivo Anticancer Drug Screen. Data for tumor model P388 Leukemia (intraperitoneal) in B6D2F1 (BDF1) mice
# Conditions: endpoint: median survival time, higher = longer survival
# In short: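 Compound-treated tumour-bearing mice were compared with vehicle-treated controls. Survival was recorded, and the value is the treated-group measurement divided by the control-group measurement (T/C).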
# [1] = dose: 100.0 mg/kg/injection, schedule: Q04DX002 (ip), vehicle: saline with Tween-80
# [2] = dose: 100.0 mg/kg/injection, schedule: Q01DX001 (ip), vehicle: saline with Tween-80
# [3] = dose: 200.0 mg/kg/injection, schedule: Q01DX001 (ip), vehicle: saline with Tween-80
# [4] = dose: 400.0 mg/kg/injection, schedule: Q01DX001 (ip), vehicle: saline with Tween-80
# [5] = dose: 100.0 mg/kg/injection, schedule: Q04DX003 (ip), vehicle: saline with Tween-80
# [6] = dose: 25.0 mg/kg/injection, schedule: Q01DX009 (ip), vehicle: saline with Tween-80
# [7] = dose: 100.0 mg/kg/injection, schedule: Q01DX009 (ip), vehicle: saline with Tween-80
# [8] = dose: 200.0 mg/kg/injection, schedule: Q01DX009 (ip), vehicle: saline with Tween-80
# [9] = dose: 12.5 mg/kg/injection, schedule: Q01DX009 (ip), vehicle: saline with Tween-80
# [10] = dose: 50.0 mg/kg/injection, schedule: Q01DX009 (ip), vehicle: saline with Tween-80
# [11] = dose: 100.0 mg/kg/injection, schedule: Q04DX003 (ip), vehicle: saline
# [12] = dose: 200.0 mg/kg/injection, schedule: Q04DX003 (ip), vehicle: saline
smiles,measurement,setting,value
CC(=O)CC(C)=O.CC(=O)CC(C)=O.Cc1nccn1C.O=N[O-].[Co],T/C,[1],105 % of control
CN(C)c1ccc(Cc2ccc(N(C)C)cc2[N+](=O)[O-])cc1,T/C,"dose: 100.0 mg/kg/injection, schedule: Q04DX003 (ip), vehicle: Klucel (hydroxypropylcellulose) (HPC)",100 % of control
same,T/C,"dose: 200.0 mg/kg/injection, schedule: Q04DX003 (ip), vehicle: Klucel (hydroxypropylcellulose) (HPC)",95 % of control
same,T/C,"dose: 400.0 mg/kg/injection, schedule: Q04DX003 (ip), vehicle: Klucel (hydroxypropylcellulose) (HPC)",104 % of control
O=C(Nc1ccc(C2=NCCCN2)cc1)c1ccc(C(=O)Nc2ccc(C3=NCCCN3)cc2)cc1,T/C,"dose: 7.2 mg/kg/injection, schedule: Q04DX003 (ip), vehicle: Klucel (hydroxypropylcellulose) (HPC)",177 % of control
same,T/C,"dose: 8.7 mg/kg/injection, schedule: Q04DX003 (ip), vehicle: saline with Tween-80",152 % of control
same,T/C,"dose: 10.8 mg/kg/injection, schedule: Q04DX003 (ip), vehicle: other",194 % of control
same,T/C,"dose: 12.0 mg/kg/injection, schedule: Q04DX003 (ip), vehicle: Klucel (hydroxypropylcellulose) (HPC)",194 % of control
same,T/C,"dose: 13.2 mg/kg/injection, schedule: Q04DX003 (ip), vehicle: saline with Tween-80",168 % of control and 172 % of control
same,T/C,"dose: 18.0 mg/kg/injection, schedule: Q04DX003 (ip), vehicle: other",203 % of control
same,T/C,"dose: 20.0 mg/kg/injection, schedule: Q04DX003 (ip), vehicle: Klucel (hydroxypropylcellulose) (HPC)",250 % of control
same,T/C,"dose: 20.0 mg/kg/injection, schedule: Q04DX003 (ip), vehicle: saline with Tween-80",250 % of control and 195 % of control
same,T/C,"dose: 30.0 mg/kg/injection, schedule: Q04DX003 (ip), vehicle: other",97 % of control
same,T/C,"dose: 30.0 mg/kg/injection, schedule: Q04DX003 (ip), vehicle: saline with Tween-80",268 % of control and 272 % of control
same,T/C,"dose: 33.3 mg/kg/injection, schedule: Q04DX003 (ip), vehicle: Klucel (hydroxypropylcellulose) (HPC)",250 % of control
CC1CC(C)(C)N=C(CC(C)(O)c2ccccn2)O1 (stereo not drawn),T/C,"dose: 100.0 mg/kg/injection, schedule: Q01DX001 (ip), vehicle: saline sonified",100 % of control
same,T/C,"dose: 200.0 mg/kg/injection, schedule: Q01DX001 (ip), vehicle: saline sonified",90 % of control
same,T/C,"dose: 400.0 mg/kg/injection, schedule: Q01DX001 (ip), vehicle: saline sonified",100 % of control
OC1CCC2(CC1)SCCS2,T/C,[2],96 % of control
same,T/C,[3],103 % of control
same,T/C,[4],101 % of control
CN1CCN(C2CCCCc3ccccc32)CC1 (stereo not drawn),T/C,"dose: 25.0 mg/kg/injection, schedule: Q04DX003 (ip), vehicle: saline with Tween-80",104 % of control
same,T/C,"dose: 50.0 mg/kg/injection, schedule: Q04DX003 (ip), vehicle: saline with Tween-80",113 % of control
same,T/C,[5],109 % of control
O=c1ccccn1CC1(c2ccccc2)OCCO1,T/C,"dose: 100.0 mg/kg/injection, schedule: Q01DX009 (ip), vehicle: Klucel (hydroxypropylcellulose) (HPC)",95 % of control
same,T/C,"dose: 200.0 mg/kg/injection, schedule: Q01DX009 (ip), vehicle: Klucel (hydroxypropylcellulose) (HPC)",91 % of control
same,T/C,"dose: 400.0 mg/kg/injection, schedule: Q01DX009 (ip), vehicle: Klucel (hydroxypropylcellulose) (HPC)",95 % of control
N=c1ccn2c(n1)OC1C(O)C(COS(=O)OC3C(CO)OC4C3Oc3nc(=N)ccn34)OC12 (stereo not drawn),T/C,[6],122 % of control
same,T/C,[7],161 % of control
same,T/C,[8],175 % of control
CC(C)(C)c1cc([N+](=O)[O-])cc([N+](=O)[O-])c1O,T/C,"dose: 0.78 mg/kg/injection, schedule: Q01DX009 (ip), vehicle: saline with Tween-80",105 % of control
same,T/C,"dose: 1.56 mg/kg/injection, schedule: Q01DX009 (ip), vehicle: saline with Tween-80",101 % of control
same,T/C,"dose: 3.13 mg/kg/injection, schedule: Q01DX009 (ip), vehicle: saline with Tween-80",101 % of control
same,T/C,"dose: 6.25 mg/kg/injection, schedule: Q01DX009 (ip), vehicle: saline with Tween-80",99 % of control
CC(=O)CC(=O)C(F)(F)F.CC(=O)CC(=O)C(F)(F)F.[O]=[V],T/C,"dose: 3.8 mg/kg/injection, schedule: Q01DX009 (ip), vehicle: Klucel (hydroxypropylcellulose) (HPC)",106 % of control
same,T/C,"dose: 7.5 mg/kg/injection, schedule: Q01DX009 (ip), vehicle: Klucel (hydroxypropylcellulose) (HPC)",91 % of control
COC(=O)c1cccc(OC)c1C(=O)OC,T/C,[1],104 % of control
same,T/C,"dose: 200.0 mg/kg/injection, schedule: Q04DX002 (ip), vehicle: saline with Tween-80",102 % of control
CN1CCN(c2cc3c(cc2[N+](=O)[O-])no[n+]3[O-])CC1,T/C,"dose: 15.0 mg/kg/injection, schedule: Q01DX009 (ip), vehicle: saline with Tween-80",123 % of control
same,T/C,"dose: 30.0 mg/kg/injection, schedule: Q01DX009 (ip), vehicle: saline with Tween-80",120 % of control
same,T/C,"dose: 60.0 mg/kg/injection, schedule: Q01DX009 (ip), vehicle: saline with Tween-80",103 % of control
CCC(=O)O[C@H]1CC[C@H]2[C@@H]3CC(=C(Br)Br)C4=CC(=O)CC[C@]4(C)[C@H]3CC[C@]12C,T/C,[9],91 % of control
same,T/C,[6],100 % of control
same,T/C,[10],86 % of control and 90 % of control
C(=N\Nc1nnn(Cc2ccccc2)n1)/c1ccccc1,T/C,[5],90 % of control
same,T/C,"dose: 200.0 mg/kg/injection, schedule: Q04DX003 (ip), vehicle: saline with Tween-80",95 % of control
same,T/C,"dose: 400.0 mg/kg/injection, schedule: Q04DX003 (ip), vehicle: saline with Tween-80",95 % of control
NNc1nccnc1Cl,T/C,[11],105 % of control
same,T/C,[12],103 % of control
OCC(O)C(O)C(O)c1cnn(-c2ccccc2)n1 (stereo not drawn),T/C,"dose: 75.0 mg/kg/injection, schedule: Q01DX009 (ip), vehicle: saline with Tween-80",96 % of control
same,T/C,"dose: 150.0 mg/kg/injection, schedule: Q01DX009 (ip), vehicle: saline with Tween-80",89 % of control
same,T/C,"dose: 300.0 mg/kg/injection, schedule: Q01DX009 (ip), vehicle: saline with Tween-80",96 % of control
COCCn1c2c(n/c(=C(\O)OC)c1=N)CCCC=2,T/C,[10],106 % of control
same,T/C,[7],116 % of control
same,T/C,[8],97 % of control
CCCCC(=O)N/N=C(\C)[C@]1(O)Cc2c(O)c3c(c(O)c2[C@@H](OC2CC(N)C(O)C(C)O2)C1)C(=O)c1c(OC)cccc1C3=O (stereo partly drawn),T/C,"dose: 0.78 mg/kg/injection, schedule: Q01DX009 (ip), vehicle: saline",109 % of control
same,T/C,"dose: 1.56 mg/kg/injection, schedule: Q01DX009 (ip), vehicle: saline",109 % of control
same,T/C,"dose: 1.56 mg/kg/injection, schedule: Q01DX009 (ip), vehicle: water",157 % of control
same,T/C,"dose: 3.12 mg/kg/injection, schedule: Q01DX009 (ip), vehicle: saline",122 % of control
same,T/C,"dose: 3.12 mg/kg/injection, schedule: Q01DX009 (ip), vehicle: water",172 % of control
same,T/C,"dose: 6.25 mg/kg/injection, schedule: Q01DX009 (ip), vehicle: saline",178 % of control
Cc1cc(O)c2c(c1)C(=O)C=CC2=O,T/C,"dose: 0.12 mg/kg/injection, schedule: Q01DX009 (ip), vehicle: other",107 % of control
same,T/C,"dose: 0.25 mg/kg/injection, schedule: Q01DX009 (ip), vehicle: other",101 % of control
same,T/C,"dose: 0.5 mg/kg/injection, schedule: Q01DX009 (ip), vehicle: other",117 % of control
same,T/C,"dose: 0.54 mg/kg/injection, schedule: Q01DX009 (ip), vehicle: alcohol",120 % of control
same,T/C,"dose: 0.82 mg/kg/injection, schedule: Q01DX009 (ip), vehicle: alcohol",110 % of control
same,T/C,"dose: 1.0 mg/kg/injection, schedule: Q01DX009 (ip), vehicle: other",103 % of control
same,T/C,"dose: 1.25 mg/kg/injection, schedule: Q01DX009 (ip), vehicle: alcohol",106 % of control
same,T/C,"dose: 1.8 mg/kg/injection, schedule: Q01DX009 (ip), vehicle: alcohol",102 % of control
same,T/C,"dose: 2.0 mg/kg/injection, schedule: Q01DX009 (ip), vehicle: other",101 % of control
same,T/C,"dose: 2.5 mg/kg/injection, schedule: Q01DX009 (ip), vehicle: alcohol",121 % of control
FC(F)(F)c1cc(-c2ccc(C3Nc4ccccc4-n4cccc43)o2)cc(C(F)(F)F)c1 (stereo not drawn),T/C,[10],92 % of control
same,T/C,[7],90 % of control
same,T/C,[8],92 % of control
CCC(=O)c1cc(OC)cc(OC)c1,T/C,[11],115 % of control
same,T/C,[12],120 % of control
same,T/C,"dose: 400.0 mg/kg/injection, schedule: Q04DX003 (ip), vehicle: saline",120 % of control
COc1ccc2nc3cc(Cl)ccc3c(NCCNCCNCCNc3c4ccc(Cl)cc4nc4ccc(OC)cc34)c2c1,T/C,[9],151 % of control
same,T/C,[6],171 % of control
same,T/C,[10],161 % of control
COCC1CCSC1=O (stereo not drawn),T/C,[2],102 % of control
same,T/C,[3],102 % of control
same,T/C,[4],93 % of control
